Laboratory results taken from US20120202847A1, “Novel Tetrahydroisoquinoline Compounds” (priority 2009, published 2012).

Each molecule was assayed against T1, DGAT1 enzyme (Homo sapiens, UniProt O75907) (assay: DGAT1 inhibitory activity test). Conditions: test compound concentration of 0.05 μg/ml; [14C]-oleoyl-CoA, 23° C., 30 minutes; read-out: Inhibitory Rate.
T1 construct: made in house
T1 sequence (O75907 1-488): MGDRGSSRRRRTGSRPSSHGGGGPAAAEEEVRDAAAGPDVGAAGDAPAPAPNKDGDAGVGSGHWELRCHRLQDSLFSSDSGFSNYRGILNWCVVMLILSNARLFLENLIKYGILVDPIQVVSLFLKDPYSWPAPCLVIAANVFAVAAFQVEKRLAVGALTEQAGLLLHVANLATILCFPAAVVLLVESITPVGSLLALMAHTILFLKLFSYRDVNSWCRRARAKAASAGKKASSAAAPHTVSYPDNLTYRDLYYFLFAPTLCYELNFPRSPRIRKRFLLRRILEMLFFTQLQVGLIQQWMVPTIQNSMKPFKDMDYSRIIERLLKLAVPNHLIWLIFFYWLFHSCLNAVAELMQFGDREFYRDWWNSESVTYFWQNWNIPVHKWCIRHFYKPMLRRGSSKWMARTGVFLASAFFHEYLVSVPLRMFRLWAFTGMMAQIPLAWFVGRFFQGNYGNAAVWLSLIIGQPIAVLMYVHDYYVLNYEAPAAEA
Type: biochemical
Protocol: (1) Preparation of DGAT1 Enzyme
DGAT1 enzyme was prepared and stored according to the method described in US2007/0249620.
(2) DGAT1 Inhibitory Activity Test
A reaction solution having the following composition was incubated at room temperature (23° C.) for 30 minutes: 175 mM Tris-HCl (pH 8.0), 8 mM MgCl2, 1 mg/ml BSA, 0.3 mM 1,2-dioleoyl-sn-glycerol (10-fold concentration of EtOH solution, 10% added), 10 μM [^14C]-oleoyl-CoA (approximately 50 mCi/mmol), 0.5% Triton X-100, the DGAT1 enzyme (10 μg) obtained in Test Example 1(1), and a test compound or vehicle (DMSO/MeOH, 7:3 solution, 5% added), 50 μl in total. A reaction stop solution […] consisting of isopropanol/1-heptane/water (80:20:2, v/v/v) was added to the reaction solution and stirred. Subsequently, water […] and 1-heptane (100 μl) were added thereto and stirred. The 1-heptane layer […] was spotted onto a TLC plate and developed with a developing solvent consisting of 1-hexane/diethyl ether/acetic acid (85:15:1, v/v/v). The radioactivity of the triglyceride fraction was quantified using BAS2500 Bio Image Analyzer (FUJIFILM) and compared with the control. The inhibitory activity of the test compound was calculated according to the formula shown below. In this context, the radioactivity at no reaction (0 minute incubation) was used as background.
Inhibitory Rate=100−[(Radioactivity of sample supplemented with test compound)−(Background)]/[(Radioactivity of control)−(Background)]×100

inhibition at 0.05 µg/mL [%] | Structure (SMILES)
≥ 50 | O=C(O)C[C@H]1CC[C@H](OC(=O)N2CCc3cc(NC(=O)Nc4ccc(F)cc4F)ccc3C2)CC1 [Example 1, trans-6-[3-(2,4-difluoro-phenyl)-ureido]-3,4-dihydro-1H-isoquinoline-2-carboxylic acid 4-carboxymethyl-cyclohexyl ester]
≥ 50 | O=C(O)C[C@H]1CC[C@H](OC(=O)N2CCc3cc(NC(=O)Nc4cccc(F)c4F)ccc3C2)CC1 [Example 3, trans-6-[3-(2,3-difluoro-phenyl)-ureido]-3,4-dihydro-1H-isoquinoline-2-carboxylic acid 4-carboxymethyl-cyclohexyl ester]
≥ 50 | O=C(O)C[C@H]1CC[C@H](OC(=O)N2CCc3cc(NC(=O)Nc4cc(F)ccc4F)ccc3C2)CC1 [Example 4, trans-6-[3-(2,5-difluoro-phenyl)-ureido]-3,4-dihydro-1H-isoquinoline-2-carboxylic acid 4-carboxymethyl-cyclohexyl ester]
≥ 50 | O=C(O)C[C@H]1CC[C@H](OC(=O)N2CCc3cc(NC(=O)Nc4c(F)cccc4F)ccc3C2)CC1 [Example 5, trans-6-[3-(2,6-difluoro-phenyl)-ureido]-3,4-dihydro-1H-isoquinoline-2-carboxylic acid 4-carboxymethyl-cyclohexyl ester]
≥ 50 | Cc1cccc(NC(=O)Nc2ccc3c(c2)CCN(C(=O)O[C@H]2CC[C@H](CC(=O)O)CC2)C3)c1F [Example 6, trans-6-[3-(2-fluoro-3-methyl-phenyl)-ureido]-3,4-dihydro-1H-isoquinoline-2-carboxylic acid 4-carboxymethyl-cyclohexyl ester]
≥ 50 | Cc1ccc(F)c(NC(=O)Nc2ccc3c(c2)CCN(C(=O)O[C@H]2CC[C@H](CC(=O)O)CC2)C3)c1 [Example 7, trans-6-[3-(2-fluoro-5-methyl-phenyl)-ureido]-3,4-dihydro-1H-isoquinoline-2-carboxylic acid 4-carboxymethyl-cyclohexyl ester]
≥ 50 | Cc1ccc(NC(=O)Nc2ccc3c(c2)CCN(C(=O)O[C@H]2CC[C@H](CC(=O)O)CC2)C3)c(F)c1 [Example 8, trans-6-[3-(2-fluoro-4-methyl-phenyl)-ureido]-3,4-dihydro-1H-isoquinoline-2-carboxylic acid 4-carboxymethyl-cyclohexyl ester]
≥ 50 | Cc1cccc(F)c1NC(=O)Nc1ccc2c(c1)CCN(C(=O)O[C@H]1CC[C@H](CC(=O)O)CC1)C2 [Example 9, trans-6-[3-(2-fluoro-6-methyl-phenyl)-ureido]-3,4-dihydro-1H-isoquinoline-2-carboxylic acid 4-carboxymethyl-cyclohexyl ester]
≥ 50 | O=C(O)C[C@H]1CC[C@H](OC(=O)N2CCc3cc(NC(=O)Nc4cccc(Cl)c4F)ccc3C2)CC1 [Example 10, trans-6-[3-(3-chloro-2-fluoro-phenyl)-ureido]-3,4-dihydro-1H-isoquinoline-2-carboxylic acid 4-carboxymethyl-cyclohexyl ester]
≥ 50 | O=C(O)C[C@H]1CC[C@H](OC(=O)N2CCc3cc(NC(=O)Nc4ccc(Cl)cc4F)ccc3C2)CC1 [Example 11, trans-6-[3-(4-chloro-2-fluoro-phenyl)-ureido]-3,4-dihydro-1H-isoquinoline-2-carboxylic acid 4-carboxymethyl-cyclohexyl ester]
≥ 50 | O=C(O)C[C@H]1CC[C@H](OC(=O)N2CCc3cc(NC(=O)Nc4cc(Cl)ccc4F)ccc3C2)CC1 [Example 12, trans-6-[3-(5-chloro-2-fluoro-phenyl)-ureido]-3,4-dihydro-1H-isoquinoline-2-carboxylic acid 4-carboxymethyl-cyclohexyl ester]
≥ 50 | O=C(O)C[C@H]1CC[C@H](OC(=O)N2CCc3cc(NC(=O)Nc4c(F)cccc4Cl)ccc3C2)CC1 [Example 13, trans-6-[3-(2-chloro-6-fluoro-phenyl)-ureido]-3,4-dihydro-1H-isoquinoline-2-carboxylic acid 4-carboxymethyl-cyclohexyl ester]
≥ 50 | O=C(O)C[C@H]1CC[C@H](OC(=O)N2CCc3cc(NC(=O)Nc4ccc(F)c(F)c4F)ccc3C2)CC1 [Example 14, trans-6-[3-(2,3,4-trifluoro-phenyl)-ureido]-3,4-dihydro-1H-isoquinoline-2-carboxylic acid 4-carboxymethyl-cyclohexyl ester]
≥ 50 | O=C(O)C[C@H]1CC[C@H](OC(=O)N2CCc3cc(NC(=O)Nc4c(F)cc(F)cc4F)ccc3C2)CC1 [Example 15, trans-6-[3-(2,4,6-trifluoro-phenyl)-ureido]-3,4-dihydro-1H-isoquinoline-2-carboxylic acid 4-carboxymethyl-cyclohexyl ester]
≥ 50 | O=C(O)C[C@H]1CC[C@H](OC(=O)N2CCc3cc(NC(=O)Nc4ccc(C(F)(F)F)cc4F)ccc3C2)CC1 [Example 16, trans-6-[3-(2-fluoro-4-trifluoromethyl-phenyl)-ureido]-3,4-dihydro-1H-isoquinoline-2-carboxylic acid 4-carboxymethyl-cyclohexyl ester]
≥ 50 | O=C(O)C[C@H]1CC[C@H](OC(=O)N2CCc3cc(NC(=O)Nc4ccccc4C(F)(F)F)ccc3C2)CC1 [Example 17, trans-6-[3-(2-trifluoromethyl-phenyl)-ureido]-3,4-dihydro-1H-isoquinoline-2-carboxylic acid 4-carboxymethyl-cyclohexyl ester]
≥ 50 | O=C(O)C[C@H]1CC[C@H](OC(=O)N2CCc3cc(NC(=O)Nc4ccc(F)cc4C(F)(F)F)ccc3C2)CC1 [Example 18, trans-6-[3-(4-fluoro-2-trifluoromethyl-phenyl)-ureido]-3,4-dihydro-1H-isoquinoline-2-carboxylic acid 4-carboxymethyl-cyclohexyl ester]
≥ 50 | COc1ccc(NC(=O)Nc2ccc3c(c2)CCN(C(=O)O[C@H]2CC[C@H](CC(=O)O)CC2)C3)c(C)c1 [Example 19, trans-6-[3-(4-methoxy-2-methyl-phenyl)-ureido]-3,4-dihydro-1H-isoquinoline-2-carboxylic acid 4-carboxymethyl-cyclohexyl ester]
≥ 50 | Cc1ccc(NC(=O)Nc2ccc3c(c2)CCN(C(=O)O[C@H]2CC[C@H](CC(=O)O)CC2)C3)c(Cl)c1 [Example 20, trans-6-[3-(2-chloro-4-methyl-phenyl)-ureido]-3,4-dihydro-1H-isoquinoline-2-carboxylic acid 4-carboxymethyl-cyclohexyl ester]
≥ 50 | O=C(O)C[C@H]1CC[C@H](OC(=O)N2CCc3cc(NC(=O)Nc4cccc(C(F)(F)F)c4F)ccc3C2)CC1 [Example 21, trans-6-[3-(2-fluoro-3-trifluoromethyl-phenyl)-ureido]-3,4-dihydro-1H-isoquinoline-2-carboxylic acid 4-carboxymethyl-cyclohexyl ester]
≥ 50 | O=C(O)C[C@H]1CC[C@H](OC(=O)N2CCc3cc(NC(=O)Nc4cc(C(F)(F)F)ccc4F)ccc3C2)CC1 [Example 22, trans-6-[3-(2-fluoro-5-trifluoromethyl-phenyl)-ureido]-3,4-dihydro-1H-isoquinoline-2-carboxylic acid 4-carboxymethyl-cyclohexyl ester]
≥ 50 | Cc1ccc(NC(=O)Nc2ccc3c(c2)CCN(C(=O)O[C@H]2CC[C@H](CC(=O)O)CC2)C3)c(C)c1 [Example 23, trans-6-[3-(2,4-dimethyl-phenyl)-ureido]-3,4-dihydro-1H-isoquinoline-2-carboxylic acid 4-carboxymethyl-cyclohexyl ester]
≥ 50 | O=C(O)C[C@H]1CC[C@H](OC(=O)N2CCc3cc(NC(=O)Nc4ccc(Cl)cc4Cl)ccc3C2)CC1 [Example 24, trans-6-[3-(2,4-dichloro-phenyl)-ureido]-3,4-dihydro-1H-isoquinoline-2-carboxylic acid 4-carboxymethyl-cyclohexyl ester]
≥ 50 | O=C(O)C[C@H]1CC[C@H](OC(=O)N2CCc3cc(NC(=O)Nc4c(F)cccc4C(F)(F)F)ccc3C2)CC1 [Example 25, trans-6-[3-(2-fluoro-6-trifluoromethyl-phenyl)-ureido]-3,4-dihydro-1H-isoquinoline-2-carboxylic acid 4-carboxymethyl-cyclohexyl ester]
